According to patent US20220204449A1, “BIASED AGONISTS OF OPIOID RECEPTORS” (ILDONG PHARMACEUTICAL CO., LTD., priority 2020, published 2022):
Entries after “also recorded” stand apart in the source; their conditions may differ. Like-named read-outs stand apart in the source and are kept apart here.

Legend:
Type in all cases: cell-based
[1] = biological target: T1, human δ-opioid receptor, OPRD (Homo sapiens, UniProt P41143); test: PathHunter β-arrestin 2 assay, OPRD cell line; details: for β-arrestin pathway activation / bARR2 recruitment, in words: OPRD
T1 construct: host or cells: HEK-293 overexpressing β-arrestin2 fused to a β-galactosidase fragment
Source text: (§1) Human embryonic kidney 293 (HEK-293) cells which transfected overexpress (3-arrestin2 fused β-galactosidase fragment were purchased from DiscoverX. Human OPRM1 gene (NM 000914.3, encoding human μ-opioid receptor, OPRM) and Human OPRD1 gene (NM 000911.3, encoding human δ-opioid receptor, OPRD) were fused to a pCMV-ProLink plasmid which contains complementary β-galactosidase fragment purchased from DiscoverX. To generate human OPRM1 or OPRD1 expression cell lines, HEK-293 cells were transfected to prepared plasmid and grown in DMEM medium with 10% fetal bovine serum, 150 μg/mL Hygromycin B and 500 μg/mL G418.
(§2) The PathHunter enzyme assay was performed to measure the agonist's capability of β-arrestin 2 pathway activation. When agonists bind to G protein-coupled receptor (GPCR), the receptor pathway is sequentially activated from G protein to β-arrestin 2 recruitment.
(§3) Because […] β-arrestin 2 and C-terminal of GPCR have a fragment of β-galactosidase, recruitment of β-arrestin 2 to GPCR forms the whole β-galactosidase. The functionality of the whole β-galactosidase is detected by chemiluminescence (FlexStation3, Molecular Devices).
(§4) cAMP and β-arrestin assays described above were conducted to decide whether candidate compounds were μ- and/or δ-opioid receptor bias agonists for the G-protein pathway. All assays produced the concentration-response curve, and the curve data was validated by a quality control factor named Z′ factor. Because half-maximal effect concentration (EC50) depends on the population of receptors, the maximal asymptote of the concentration curve was used. Efficacy data of candidates was normalized by comparison to reference agonists DAMGO and SNC80 for OPRM and OPRD.

[2] = biological target: T2, human μ-opioid receptor, OPRM (Homo sapiens, UniProt P35372); test: PathHunter β-arrestin 2 assay, OPRM cell line; details: for OPRM β-ARR2 Emax (%): Example 3, Tables 5-7; for β-arrestin pathway activation / bARR2 recruitment, in words: OPRM
T2 construct: host or cells: HEK-293 overexpressing β-arrestin2 fused to a β-galactosidase fragment
Source text: as §1, §2, §3, §4

[3] = biological target: T2, human μ-opioid receptor, OPRM; test: Dominant assay: cAMP assay with/without irreversible antagonist β-FNA, OPRM cell line; details: for maximal response on decreasing receptor population (dominant tendency), in words: OPRM cell lines, β-FNA
Source text: (§5) To confirm the agonist's efficacy in a nature-like system, we need inactivation of target receptors on the cell membrane. Most cell lines have an abundant target receptor population (also known as spare receptors). Therefore, agonists have more opportunity to constitute agonist-receptor conformation. In this environment, not only full agonists but also partial agonists can reach maximal response.
(§6) If the partial agonist is selected as a full agonist, translational in vivo research will likely fail.
(§7) Non-competitive, irreversible antagonists can be applicable to judge the pharmacological character of agonists because they permanently decrease the receptor population in the cell line system. β-FNA or β-CNA is used as a non-competitive and irreversible antagonist for OPRM, OPRD. Before cAMP assay, cells were incubated with β-FNA or β-CNA for 40 minutes. Afterwards, the procedure is the same.
(§8) If a partial agonist compound acts as a full agonist due to receptor population (pseudo full agonist), it cannot sustain maximal response with reduced receptor population. However, a full agonist compound maintains their maximal response even though increased EC50.

[4] = biological target: T1, human δ-opioid receptor, OPRD; test: Dominant assay: cAMP assay with/without irreversible antagonist β-CNA, OPRD cell line; details: for maximal response on decreasing receptor population (dominant tendency), in words: OPRD cell lines, β-CNA
Source text: as §5, §6, §7, §8

[5] = addition of β-FNA, Example 3, Tables 5-7, read-out: OPRM Gi β-FNA (+) EC50
[6] = addition of β-FNA, Example 3, Tables 5-7, read-out: OPRM Gi β-FNA (+) Emax (%)
[7] = addition of β-FNA, repeated dominant assay, Example 4, Tables 8-10, read-out: OPRM Gi β-FNA (+) EC50
[8] = addition of β-FNA, repeated dominant assay, Example 4, Tables 8-10, read-out: OPRM Gi β-FNA (+) Emax (%)
[9] = no addition of β-FNA, Example 3, Tables 5-7, read-out: OPRM Gi β-FNA (−) EC50
[10] = no addition of β-FNA, Example 3, Tables 5-7, read-out: OPRM Gi β-FNA (−) Emax (%)
[11] = no addition of β-FNA, repeated dominant assay, Example 4, Tables 8-10, read-out: OPRM Gi β-FNA (−) EC50
[12] = no addition of β-FNA, repeated dominant assay, Example 4, Tables 8-10, read-out: OPRM Gi β-FNA (−) Emax (%)
[13] = addition of β-CNA, Example 3, Tables 5-7, read-out: OPRD Gi β-CNA (+) EC50
[14] = addition of β-CNA, Example 3, Tables 5-7, read-out: OPRD Gi β-CNA (+) Emax (%)
[15] = addition of β-CNA, repeated dominant assay, Example 4, Tables 8-10, read-out: OPRD Gi β-CNA (+) EC50
[16] = addition of β-CNA, repeated dominant assay, Example 4, Tables 8-10, read-out: OPRD Gi β-CNA (+) Emax (%)
[17] = no addition of β-CNA, Example 3, Tables 5-7
[18] = no addition of β-CNA, Example 3, Tables 5-7, read-out: OPRD Gi β-CNA (−) EC50
[19] = no addition of β-CNA, repeated dominant assay, Example 4, Tables 8-10, read-out: OPRD Gi β-CNA (−) EC50
[20] = no addition of β-CNA, repeated dominant assay, Example 4, Tables 8-10, read-out: OPRD Gi β-CNA (−) Emax (%)
[21] = addition of β-FNA, Example 3, Tables 5-7
[22] = addition of β-FNA, repeated dominant assay, Example 4, Tables 8-10
[23] = no addition of β-FNA, Example 3, Tables 5-7
[24] = no addition of β-FNA, repeated dominant assay, Example 4, Tables 8-10
[25] = addition of β-CNA, Example 3, Tables 5-7
[26] = addition of β-CNA, repeated dominant assay, Example 4, Tables 8-10
[27] = no addition of β-CNA, repeated dominant assay, Example 4, Tables 8-10

T2 sequence (P35372 whole entry, the tested form may be a part): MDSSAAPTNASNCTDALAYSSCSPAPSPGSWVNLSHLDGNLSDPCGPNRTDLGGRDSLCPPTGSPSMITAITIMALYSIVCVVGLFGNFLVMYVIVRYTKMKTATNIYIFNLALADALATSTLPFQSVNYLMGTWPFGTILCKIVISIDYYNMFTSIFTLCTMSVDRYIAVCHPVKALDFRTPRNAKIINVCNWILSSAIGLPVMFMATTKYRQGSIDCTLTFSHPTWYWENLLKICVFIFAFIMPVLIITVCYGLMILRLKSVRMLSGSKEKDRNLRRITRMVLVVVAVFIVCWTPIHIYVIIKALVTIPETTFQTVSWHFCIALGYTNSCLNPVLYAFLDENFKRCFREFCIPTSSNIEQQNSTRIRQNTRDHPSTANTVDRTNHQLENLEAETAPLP
T1 sequence (P41143 whole entry, the tested form may be a part): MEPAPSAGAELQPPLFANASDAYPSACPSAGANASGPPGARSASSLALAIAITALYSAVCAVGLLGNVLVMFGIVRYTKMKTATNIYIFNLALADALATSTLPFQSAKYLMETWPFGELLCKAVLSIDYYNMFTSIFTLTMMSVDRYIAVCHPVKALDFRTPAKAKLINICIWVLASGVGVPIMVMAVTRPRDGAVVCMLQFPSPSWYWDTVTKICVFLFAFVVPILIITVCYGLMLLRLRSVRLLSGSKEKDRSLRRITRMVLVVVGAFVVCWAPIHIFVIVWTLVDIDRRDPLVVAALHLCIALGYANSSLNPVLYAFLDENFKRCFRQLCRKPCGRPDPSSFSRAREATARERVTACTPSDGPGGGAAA

SMILES	β-arrestin pathway activation / bARR2 recruitment, in words [1]	OPRM β-ARR2 Emax (%) [2] [%]	β-arrestin pathway activation / bARR2 recruitment, in words [2]	maximal response on decreasing receptor population (dominant tendency), in words [3]	EC50 [3, 5] [µM]	Emax [3, 6] [%]	EC50 [3, 7] [µM]	EC50 [3, 9] [µM]	Emax [3, 10] [%]	EC50 [3, 11] [µM]	EC50 [4, 13] [µM]	EC50 [4, 15] [µM]	OPRD Gi β-CNA (−) Emax (%) [4, 17] [%]	EC50 [4, 18] [µM]	EC50 [4, 19] [µM]	OPRD β-ARR2 Emax (%) ([1]; Example 3, Tables 5-7)	OPRM Gi β-FNA (+) Emax (%) [3, 22] [%]	OPRD Gi β-CNA (+) Emax (%) [4, 25] [%]	OPRD Gi β-CNA (+) Emax (%) [4, 26] [%]	OPRD Gi β-CNA (−) Emax (%) [4, 27] [%]	further results
CN1CCc2cc(C(CNC(=O)Nc3ccc(F)cc3)N(C)C)ccc21 (single isomer, unassigned) [Compound 6]	lower bARR2 recruitment as compared to morphine	8.5	lower bARR2 recruitment as compared to morphine	resistant to decreasing spare receptors; also recorded: showed efficacy dominance on both types of opioid receptors; also recorded: resistant to decreasing spare receptor-induced tendency; also recorded: maintained a higher maximal response as compared to compound 2	2.48	77	8.49	0.519	106	1.86	48.3	13.5	128.1	8.91	4.32						Emax ([1]; Example 3, Tables 5-7, read-out: OPRD β-ARR2 Emax (%)): 10.5%; Emax [3, 8]: 90.1%; Emax [3, 12]: 100%; maximal response on decreasing receptor population (dominant tendency), in words [4]: resistant to decreasing spare receptors; also recorded: showed efficacy dominance on both types of opioid receptors; also recorded: resistant to decreasing spare receptor-induced tendency; also recorded: maintained a higher maximal response as compared to compound 2; Emax [4, 14]: 119%; Emax [4, 16]: 81.4%; Emax [4, 20]: 102%
CN(C)C(CNC(=O)Cc1ccc2c(c1)OCCO2)c1ccccc1 (single isomer, unassigned) [Compound 5]		23.1		superior efficacy-dominant properties	2.45		4.07	0.292		1.65	6.1	8.79	111	6.67	7.33	5.7	77.98	79.38	65.27	100	OPRM Gi β-FNA (+) Emax (%) [3, 21]: 21.91%; OPRM Gi β-FNA (−) Emax (%) [3, 23]: 102%; OPRM Gi β-FNA (−) Emax (%) [3, 24]: 101.9%; maximal response on decreasing receptor population (dominant tendency), in words [4]: superior efficacy-dominant properties
Cc1ccccc1NC(=O)NCC(c1ccc2c(c1)CCO2)N(C)C (single isomer, unassigned) [Compound 9]		22.9			1.66		0.791	0.0733		0.0713	5.86	5.86	66.82	2.79	18.1	16.1	74.49	51.61	51.61	139	OPRM Gi β-FNA (+) Emax (%) [3, 21]: 52.64%; OPRM Gi β-FNA (−) Emax (%) [3, 23]: 98.76%; OPRM Gi β-FNA (−) Emax (%) [3, 24]: 91.98%
CN1CCc2cc(C(CNC(=O)Nc3ccc(F)cc3)N(C)C)ccc21 (single isomer, unassigned) [Compound 7]		22.0		resistant to decreasing spare receptors; also recorded: showed efficacy dominance on both types of opioid receptors; also recorded: resistant to decreasing spare receptor-induced tendency; also recorded: maintained a higher maximal response as compared to compound 2	0.728		6.95	0.0416		2.31	4.9	3.44	98.3	0.517	1.05	6.4	90.07	100.2	81.99	100.2	OPRM Gi β-FNA (+) Emax (%) [3, 21]: 85.93%; OPRM Gi β-FNA (−) Emax (%) [3, 23]: 95.81%; OPRM Gi β-FNA (−) Emax (%) [3, 24]: 100.9%; maximal response on decreasing receptor population (dominant tendency), in words [4]: resistant to decreasing spare receptors; also recorded: showed efficacy dominance on both types of opioid receptors; also recorded: resistant to decreasing spare receptor-induced tendency; also recorded: maintained a higher maximal response as compared to compound 2
Cc1ccccc1NC(=O)NCC(c1ccc2c(c1)CCO2)N(C)C (single isomer, unassigned) [Compound 8]	lower bARR2 recruitment as compared to morphine	5.4	lower bARR2 recruitment as compared to morphine		14.2	43.2	7.78	0.734	84.7	0.219	35.7	8.69	95.54	15	16.9	5.1				102.7	Emax [3, 8]: 77.5%; Emax [3, 12]: 91.6%; Emax [4, 14]: 42.7%; Emax [4, 16]: 42.7%
CN(C)C(CNC(=O)Cc1ccc2c(c1)OCCO2)c1ccccc1 (single isomer, unassigned) [Compound 4]	lower bARR2 recruitment as compared to morphine	4.8	lower bARR2 recruitment as compared to morphine	better efficacy than racemic compound 1	10.9	24.6	12	20	82.8	9.4		10	20.59		8.65	2.8	45.02	17.23	108.1		Emax [3, 12]: 100%; Emax [4, 20]: 100%
